From patent publication EP0838474B1, “PEPTIDE THAT INHIBITS BLOOD TRIGLYCERIDE LEVEL RISE AND BLOOD TRIGLYCERIDE LEVEL RISE INHIBITOR CONTAINING SAID PEPTIDE AS ACTIVE INGREDIENT” (MG PHARMA INC., priority 1995, dated 1997)
Residues, ends and D or L forms follow the SMILES beside them. No end group written: not given here.

Test system: TG level in blood
Assay: Serum TG elevation inhibiting action at the time of in vivo lipid loading (olive oil)
Design: species or system albino mice
Details: for Ratio of Increase in Blood TG Levels (%): blood collected after 3 hours; for ID^50: Dose (mg/mouse) exhibiting 50% inhibition: oral, with 250 mg olive oil, blood TG after 3 hours; for Specific Activity: relative to the proteolysate (= 1)
Experimental: Serum TG elevation inhibiting action at the time of in vivo lipid loading was examined on the three peptides of the invention inhibiting elevations of TG levels in blood (i.e., the peptide having the amino acid sequence of SEQ ID NO: 1 and the peptides Val-Thr-Leu and Val-Tyr-Pro synthesized by the method described in Example 4). Healthy albino mice (5-10 weeks old; body weight: about 20-30 g) were used in this experiment. To each mouse, 250 mg of olive oil and an aqueous solution of the above peptide were administered orally. Three hours thereafter, blood was collected under anesthesia with Nembutal. After separation of the blood, the TG level in blood was determined.

Compound	Ratio of Increase in Blood TG Levels (%) (dose 1x10^-3 mg/mouse oral with 250 mg olive oil)	Ratio of Increase in Blood TG Levels (%) (dose 1x10^-4 mg/mouse oral with 250 mg olive oil)	Ratio of Increase in Blood TG Levels (%) (dose 4x10^-4 mg/mouse oral with 250 mg olive oil)	Ratio of Increase in Blood TG Levels (%) (dose 4x10^-5 mg/mouse oral with 250 mg olive oil)	ID^50: Dose (mg/mouse) exhibiting 50% inhibition	Specific Activity	Ratio of Increase in Blood TG Levels (%) (dose 0.1 mg/mouse oral with 250 mg olive oil)	Ratio of Increase in Blood TG Levels (%) (dose 0.2 mg/mouse oral with 250 mg olive oil)	Ratio of Increase in Blood TG Levels (%) (dose 1.0 mg/mouse oral with 250 mg olive oil)	Ratio of Increase in Blood TG Levels (%) (dose 2.5 mg/mouse oral with 250 mg olive oil)	Ratio of Increase in Blood TG Levels (%) (dose 5.0 mg/mouse oral with 250 mg olive oil)
LVVYPWT [SEQ ID NO: 1, Leu-Val-Val-Tyr-Pro-Trp-Thr]	65	33	33	14	5.6x10^-4 mg/mouse	50000					
CC(C)C[C@H](NC(=O)[C@@H](NC(=O)[C@@H](N)C(C)C)[C@@H](C)O)C(=O)O [Val-Thr-Leu, H-Val-Thr-Leu-OH] (H-Val-Thr-Leu-OH)					0.43 mg/mouse	65	30	33	73	76	79
